Measured values as given in patent US20100298141A1, “SUBSTITUTED PYRIDINE N-OXIDE HERBICIDES” (E. I. DU PONT DE NEMOURS AND COMPANY, priority 2007, published 2010).

Legend:
Assay in all cases: Test F preemergence test
Canada horseweed = format: in vivo, Conyza canadensis; settings: scale 0 to 100
Outline: (§1)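 Compound in a non-phytotoxic solvent blend with surfactant is applied preemergence to planted seeds or postemergence to sugarcane plants. Plants and controls stay in the greenhouse 14 to 21 days before visual comparison.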

pitted morningglory = format: in vivo, Ipomoea lacunosa; settings: scale 0 to 100
Outline: as §1

southern sandbur = format: in vivo, Cenchrus echinatus; settings: scale 0 to 100
Outline: as §1

bermudagrass = format: in vivo, Cynodon dactylon; settings: scale 0 to 100
Outline: as §1

common purslane = format: in vivo, Portulaca oleracea; settings: scale 0 to 100
Outline: as §1

quackgrass = format: in vivo, Elytrigia repens; settings: scale 0 to 100
Outline: as §1

common chickweed = format: in vivo, Stellaria media; settings: scale 0 to 100
Outline: as §1

green foxtail = format: in vivo, Setaria viridis; settings: scale 0 to 100
Outline: as §1

guineagrass = format: in vivo, Panicum maximum; settings: scale 0 to 100
Outline: as §1

large crabgrass = format: in vivo, Digitaria sanguinalis; settings: scale 0 to 100
Outline: as §1

prickly sida = format: in vivo, Sida spinosa; settings: scale 0 to 100
Outline: as §1

mustard = format: in vivo, Brassica nigra; settings: scale 0 to 100
Outline: as §1

field bindweed = format: in vivo, Convolvulus arvensis; settings: scale 0 to 100
Outline: as §1

naked crabgrass = format: in vivo, Digitaria nuda; settings: scale 0 to 100
Outline: as §1

Surinam grass = format: in vivo, Brachiaria decumbens; settings: scale 0 to 100
Outline: as §1

common ragweed = format: in vivo, Ambrosia elation; settings: scale 0 to 100
Outline: as §1

common mallow = format: in vivo, Malva sylvestris; settings: scale 0 to 100
Outline: as §1

Italian ryegrass = format: in vivo, Lolium multiflorum; settings: scale 0 to 100
Outline: as §1

barnyardgrass = format: in vivo, Echinochloa crus-galli
Outline: as §1

annual bluegrass = format: in vivo, Poa annua; settings: scale 0 to 100
Outline: as §1

CCn1nc(C(F)(F)F)c(C[S+]([O-])c2cc(C)cc[n+]2[O-])c1OCC(F)(F)F (racemic) [Compound 66]
85: Quackgrass plant response rating (quackgrass; 62 g ai/ha, Preemergence)
100: Horseweed plant response rating (Canada horseweed; 125 g ai/ha, preemergence) | Morningglory plant response rating (pitted morningglory; 125 g ai/ha, preemergence) | Sandbur plant response rating (southern sandbur; 125 g ai/ha, preemergence) | Plant response rating, Sandbur (southern sandbur; Preemergence, 62 g ai/ha) | Quackgrass plant response rating (quackgrass; 125 g ai/ha, preemergence) | Plant response rating, Chickweed (common chickweed; 16 g ai/ha, preemergence) | Chickweed plant response rating (common chickweed; 62 g ai/ha, Preemergence) | Chickweed plant response rating (common chickweed; 125 g ai/ha, preemergence) | Plant response rating, Chickweed (common chickweed; Preemergence, 31 g ai/ha) | Foxtail, Green plant response rating (green foxtail; 125 g ai/ha, preemergence) | Guineagrass plant response rating (guineagrass; 62 g ai/ha, Preemergence) | Guineagrass plant response rating (guineagrass; 125 g ai/ha, preemergence) | Black Mustard plant response rating (mustard; 62 g ai/ha, Preemergence) | Black Mustard plant response rating (mustard; 125 g ai/ha, preemergence) | Crabgrass, Naked plant response rating (naked crabgrass; 62 g ai/ha, Preemergence) | Crabgrass, Naked plant response rating (naked crabgrass; 125 g ai/ha, preemergence) | Surinam Grass plant response rating (Surinam grass; 125 g ai/ha, preemergence) | Mallow plant response rating (common mallow; 125 g ai/ha, preemergence) | Barnyardgrass plant response rating (barnyardgrass; 62 g ai/ha, Preemergence, scale 0 to 100) | Barnyardgrass plant response rating (barnyardgrass; 125 g ai/ha, preemergence, scale 0 to 100)
95: Crabgrass, Large plant response rating (large crabgrass; 125 g ai/ha, preemergence)
10: Plant response rating, Foxtail, Green (green foxtail; 16 g ai/ha, preemergence)
90: Horseweed plant response rating (Canada horseweed; 62 g ai/ha, Preemergence) | Foxtail, Green plant response rating (green foxtail; 62 g ai/ha, Preemergence) | Plant response rating, Surinam Grass (Surinam grass; Preemergence, 31 g ai/ha)
70: Plant response rating, Sandbur (southern sandbur; Preemergence, 31 g ai/ha) | Plant response rating, Quackgrass (quackgrass; 16 g ai/ha, preemergence) | Plant response rating, Crabgrass, Large (large crabgrass; Preemergence, 31 g ai/ha) | Plant response rating, Ragweed (common ragweed; Preemergence, 62 g ai/ha) | Plant response rating, Ragweed (common ragweed; Preemergence, 31 g ai/ha) | Plant response rating, Mallow (common mallow; Preemergence, 31 g ai/ha) | Ryegrass, Italian plant response rating (Italian ryegrass; 125 g ai/ha, preemergence) | Bluegrass plant response rating (annual bluegrass; 62 g ai/ha, Preemergence)
75: Bermudagrass plant response rating (bermudagrass; 62 g ai/ha, Preemergence) | Plant response rating, Quackgrass (quackgrass; Preemergence, 31 g ai/ha) | Prickly Sida plant response rating (prickly sida; 62 g ai/ha, Preemergence) | Field Bindweed plant response rating (field bindweed; 125 g ai/ha, preemergence) | Plant response rating, Barnyardgrass (barnyardgrass; Preemergence, 31 g ai/ha, scale 0 to 100)
20: Plant response rating, Guineagrass (guineagrass; 16 g ai/ha, preemergence) | Plant response rating, Prickly Sida (prickly sida; 16 g ai/ha, preemergence) | Plant response rating, Prickly Sida (prickly sida; Preemergence, 31 g ai/ha) | Plant response rating, Bluegrass (annual bluegrass; Preemergence, 31 g ai/ha)
60: Plant response rating, Bermudagrass (bermudagrass; Preemergence, 31 g ai/ha) | Purslane plant response rating (common purslane; 125 g ai/ha, preemergence) | Plant response rating, Foxtail, Green (green foxtail; Preemergence, 31 g ai/ha) | Plant response rating, Ryegrass, Italian (Italian ryegrass; Preemergence, 62 g ai/ha)
80: Morningglory plant response rating (pitted morningglory; 62 g ai/ha, Preemergence) | Plant response rating, Guineagrass (guineagrass; Preemergence, 31 g ai/ha) | Crabgrass, Large plant response rating (large crabgrass; 62 g ai/ha, Preemergence) | Ragweed plant response rating (common ragweed; 125 g ai/ha, preemergence) | Mallow plant response rating (common mallow; 62 g ai/ha, Preemergence) | Bluegrass plant response rating (annual bluegrass; 125 g ai/ha, preemergence)
40: Plant response rating, Bermudagrass (bermudagrass; 16 g ai/ha, preemergence) | Field Bindweed plant response rating (field bindweed; 62 g ai/ha, Preemergence) | Plant response rating, Field Bindweed (field bindweed; Preemergence, 31 g ai/ha)
0: Plant response rating, Morningglory (pitted morningglory; 16 g ai/ha, preemergence) | Plant response rating, Purslane (common purslane; 16 g ai/ha, preemergence) | Plant response rating, Purslane (common purslane; Preemergence, 31 g ai/ha) | Plant response rating, Crabgrass, Large (large crabgrass; 16 g ai/ha, preemergence) | Plant response rating, Crabgrass, Naked (naked crabgrass; 16 g ai/ha, preemergence) | Plant response rating, Surinam Grass (Surinam grass; 16 g ai/ha, preemergence) | Plant response rating, Ragweed (common ragweed; 16 g ai/ha, preemergence) | Plant response rating, Mallow (common mallow; 16 g ai/ha, preemergence) | Plant response rating, Ryegrass, Italian (Italian ryegrass; 16 g ai/ha, preemergence) | Plant response rating, Bluegrass (annual bluegrass; 16 g ai/ha, preemergence)
50: Plant response rating, Horseweed (Canada horseweed; 16 g ai/ha, preemergence) | Plant response rating, Horseweed (Canada horseweed; Preemergence, 31 g ai/ha) | Purslane plant response rating (common purslane; 62 g ai/ha, Preemergence) | Plant response rating, Black Mustard (mustard; 16 g ai/ha, preemergence) | Plant response rating, Ryegrass, Italian (Italian ryegrass; Preemergence, 31 g ai/ha)
25: Plant response rating, Crabgrass, Naked (naked crabgrass; Preemergence, 31 g ai/ha)
30: Plant response rating, Field Bindweed (field bindweed; 16 g ai/ha, preemergence) | Plant response rating, Barnyardgrass (barnyardgrass; 16 g ai/ha, preemergence, scale 0 to 100 (0 no effect, 100 complete control))
65: Plant response rating, Morningglory (pitted morningglory; Preemergence, 31 g ai/ha) | Plant response rating, Black Mustard (mustard; Preemergence, 31 g ai/ha)
15: Plant response rating, Sandbur (southern sandbur; 16 g ai/ha, preemergence)
98: Bermudagrass plant response rating (bermudagrass; 125 g ai/ha, preemergence) | Prickly Sida plant response rating (prickly sida; 125 g ai/ha, preemergence) | Plant response rating, Surinam Grass (Surinam grass; Preemergence, 62 g ai/ha)
